Results published in patent publication US9833454B2, “Difluoromethoxy compound with low bioactivation potential for the reduction of beta-amyloid production” (BRISTOL-MYERS SQUIBB COMPANY, priority 2014, dated 2017).

Experiments:
CYP2B6 = molecular target: T1, CYP2B6 (Homo sapiens, UniProt P20813); assay: Inhibition of recombinant CYP enzymes (rCYP), CYP2B6; assay type: in vitro ADME; settings: average of two experiments, read-out: rCYP IC50 2B6
T1 sequence (P20813 1-491): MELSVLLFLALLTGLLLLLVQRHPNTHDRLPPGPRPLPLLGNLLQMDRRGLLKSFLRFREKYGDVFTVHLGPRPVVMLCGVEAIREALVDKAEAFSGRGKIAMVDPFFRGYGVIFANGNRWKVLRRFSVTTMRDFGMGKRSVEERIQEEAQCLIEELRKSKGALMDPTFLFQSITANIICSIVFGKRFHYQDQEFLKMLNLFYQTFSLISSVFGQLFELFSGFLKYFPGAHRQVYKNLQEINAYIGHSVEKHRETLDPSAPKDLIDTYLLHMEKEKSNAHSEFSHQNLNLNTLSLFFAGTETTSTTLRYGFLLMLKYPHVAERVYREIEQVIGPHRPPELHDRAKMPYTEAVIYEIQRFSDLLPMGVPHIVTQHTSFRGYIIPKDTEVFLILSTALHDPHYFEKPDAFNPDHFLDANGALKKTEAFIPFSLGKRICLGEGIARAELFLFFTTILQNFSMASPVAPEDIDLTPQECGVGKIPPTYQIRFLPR

CYP2C8 = molecular target: T2, CYP2C8 (Homo sapiens, UniProt P10632); assay: Inhibition of recombinant CYP enzymes (rCYP), CYP2C8; assay type: in vitro ADME; settings: average of two experiments, read-out: rCYP IC50 2C8
T2 sequence (P10632 1-490): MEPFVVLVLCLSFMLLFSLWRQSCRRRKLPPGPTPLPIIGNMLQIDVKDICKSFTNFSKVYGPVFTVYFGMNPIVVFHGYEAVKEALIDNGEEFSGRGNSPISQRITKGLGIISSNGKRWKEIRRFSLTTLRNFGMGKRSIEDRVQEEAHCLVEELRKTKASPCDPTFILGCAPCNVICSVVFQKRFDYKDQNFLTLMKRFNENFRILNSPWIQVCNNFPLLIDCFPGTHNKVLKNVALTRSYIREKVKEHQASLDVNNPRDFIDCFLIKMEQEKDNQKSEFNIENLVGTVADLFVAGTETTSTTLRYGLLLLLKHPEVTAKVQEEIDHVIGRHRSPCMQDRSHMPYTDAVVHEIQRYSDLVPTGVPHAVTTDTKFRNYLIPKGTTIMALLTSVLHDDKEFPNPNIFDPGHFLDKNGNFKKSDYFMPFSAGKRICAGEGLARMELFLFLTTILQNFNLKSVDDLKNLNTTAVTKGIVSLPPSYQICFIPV

CYP2C9 = CYP2C9 (Homo sapiens, UniProt P11712); assay: Inhibition of recombinant CYP enzymes (rCYP), CYP2C9; assay type: in vitro ADME; settings: average of two experiments, read-out: rCYP IC50 2C9
Chain of CYP2C9 (P11712 whole entry): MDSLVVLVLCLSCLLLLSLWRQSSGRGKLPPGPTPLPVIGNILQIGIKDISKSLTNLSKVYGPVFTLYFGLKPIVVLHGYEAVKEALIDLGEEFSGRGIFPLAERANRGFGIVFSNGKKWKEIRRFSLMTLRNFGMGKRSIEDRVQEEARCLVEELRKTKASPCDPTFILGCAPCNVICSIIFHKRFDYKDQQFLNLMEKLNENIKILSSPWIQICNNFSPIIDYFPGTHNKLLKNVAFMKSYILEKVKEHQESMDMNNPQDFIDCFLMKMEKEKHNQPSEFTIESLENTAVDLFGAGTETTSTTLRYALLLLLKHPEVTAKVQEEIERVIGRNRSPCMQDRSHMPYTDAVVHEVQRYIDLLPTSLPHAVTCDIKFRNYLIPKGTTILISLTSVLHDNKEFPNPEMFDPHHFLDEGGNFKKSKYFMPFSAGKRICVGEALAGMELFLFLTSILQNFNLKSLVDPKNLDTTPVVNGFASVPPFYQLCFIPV

CYP2C19 [1] = molecular target: T3, CYP2C19 (Homo sapiens, UniProt P33261); assay: Inhibition of recombinant CYP enzymes (rCYP), CYP2C19; assay type: in vitro ADME; settings: average of two experiments, read-out: rCYP IC50 2C19
T3 sequence (P33261 whole entry): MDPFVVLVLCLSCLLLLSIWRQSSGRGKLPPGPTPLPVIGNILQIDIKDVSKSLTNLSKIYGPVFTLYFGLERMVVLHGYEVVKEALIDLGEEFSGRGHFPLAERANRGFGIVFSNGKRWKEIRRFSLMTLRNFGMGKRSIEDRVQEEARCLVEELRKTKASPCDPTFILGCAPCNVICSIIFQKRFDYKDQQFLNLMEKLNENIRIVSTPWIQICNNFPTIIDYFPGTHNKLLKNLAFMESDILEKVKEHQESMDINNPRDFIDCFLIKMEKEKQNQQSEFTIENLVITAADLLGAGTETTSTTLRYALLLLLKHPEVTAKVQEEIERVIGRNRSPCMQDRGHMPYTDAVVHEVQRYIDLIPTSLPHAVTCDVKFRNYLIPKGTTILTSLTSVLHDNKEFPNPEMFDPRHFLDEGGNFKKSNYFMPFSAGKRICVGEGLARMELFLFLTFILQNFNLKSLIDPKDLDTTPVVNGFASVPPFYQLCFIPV

CYP2D6 = CYP2D6 (Homo sapiens, UniProt P10635); assay: Inhibition of recombinant CYP enzymes (rCYP), CYP2D6; assay type: in vitro ADME; settings: average of two experiments, read-out: rCYP IC50 2D6
Chain of CYP2D6 (P10635 whole entry): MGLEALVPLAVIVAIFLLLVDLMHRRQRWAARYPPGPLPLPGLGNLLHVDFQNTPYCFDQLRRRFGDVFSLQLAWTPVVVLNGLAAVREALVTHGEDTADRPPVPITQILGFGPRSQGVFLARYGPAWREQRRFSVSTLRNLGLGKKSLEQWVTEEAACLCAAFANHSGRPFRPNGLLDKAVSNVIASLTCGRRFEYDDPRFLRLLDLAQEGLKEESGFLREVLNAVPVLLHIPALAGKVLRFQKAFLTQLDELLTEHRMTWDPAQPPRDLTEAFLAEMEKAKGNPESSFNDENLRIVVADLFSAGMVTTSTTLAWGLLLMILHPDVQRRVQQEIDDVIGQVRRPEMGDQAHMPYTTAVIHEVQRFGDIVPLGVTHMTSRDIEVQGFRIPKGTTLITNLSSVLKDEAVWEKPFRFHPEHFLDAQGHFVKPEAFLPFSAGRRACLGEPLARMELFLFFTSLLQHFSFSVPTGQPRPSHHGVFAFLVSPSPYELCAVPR

CYP3A4 = CYP3A4 (Homo sapiens, UniProt P08684); assay: HLM CYP3A4 Inactivation Assay; assay type: in vitro ADME
Chain of CYP3A4 (P08684 whole entry): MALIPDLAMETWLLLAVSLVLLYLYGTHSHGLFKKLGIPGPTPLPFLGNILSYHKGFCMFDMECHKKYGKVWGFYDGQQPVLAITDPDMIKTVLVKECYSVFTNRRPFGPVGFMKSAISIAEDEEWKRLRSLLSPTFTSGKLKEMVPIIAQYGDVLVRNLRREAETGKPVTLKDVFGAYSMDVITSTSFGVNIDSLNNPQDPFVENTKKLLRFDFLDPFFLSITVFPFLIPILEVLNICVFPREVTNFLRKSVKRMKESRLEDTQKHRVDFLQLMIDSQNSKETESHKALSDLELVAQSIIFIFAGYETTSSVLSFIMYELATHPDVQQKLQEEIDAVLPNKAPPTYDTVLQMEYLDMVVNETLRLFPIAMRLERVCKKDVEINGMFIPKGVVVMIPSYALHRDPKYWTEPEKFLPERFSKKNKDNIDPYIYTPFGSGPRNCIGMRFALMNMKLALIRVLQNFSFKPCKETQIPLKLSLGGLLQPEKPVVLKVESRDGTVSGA
Experimental: Human liver microsomes pooled from 150 donors (UltraPool 150), [^13C3]1′-hydroxymidazolam and [^2H7]6β-hydroxytestosterone were purchased from BD Gentest (Woburn, Mass.), midazolam and testosterone from Sigma-Aldrich (Saint Louis, Mo.), NADPH from AKRON Biotech (Boca Raton, Fla.).
After a 2-minute incubation at 37° C., the secondary reactions were terminated by the addition of a quench buffer (1:1, v/v), containing an internal standard (stable-isotope-labeled metabolite of the probe substrate).
Reaction buffer (in both primary and secondary reactions) consisted of 100 mM potassium phosphate, pH 7.4, 2 mM MgCl2, and 1 mM NADPH. Quench buffer was a mixture of water, acetonitrile, and formic acid (94:5:1, v/v/v) containing one of the internal standards (0.2 μM [^13C3]1′-hydroxymidazolam or 3 μM [^2H7]6β-hydroxytestosterone).
Quenched reaction mixtures (in 96-well microplates) were initially frozen at −80° C. and then, before LC-MS/MS analysis, the samples were thawed at room temperature and centrifuged at ˜2500×g for 10 minutes to precipitate denatured microsomal protein. Supernatants were used to quantify the amount of a metabolite of the probe substrate in the reaction samples.
The LC-MS/MS system consisted of a Thermo Cohesive ARIA LX-2 (Waltham, Mass.) with Shimadzu LC-20AD XR pumps (Kyoto, Japan) for gradient elution and an AB Sciex API 4500 triple-quadrupole mass spectrometer (Foster City, Calif.), using Turbo V™ source for sample analysis. Samples were injected using dual-arm CTC HTS PAL autosampler from LEAP Technologies (Carrboro, N.C.
To quantify 1′-hydroxymidazolam, the mass spectrometer was operated under positive ionization mode and SRM used for analysis. […] The dwell time was 75 ms for each transition. The declustering potential was 70 V and the collision energy 38 eV. A Kinetex 2.6 μm XB-C18 100A, 50 mm×2.1 mm HPLC column from Phenomenex (Torrance, Calif.) and the injection volume was 10 μL. Mobile phase A was water with 0.2% formic acid, and mobile phase B was acetonitrile with 0.2% formic acid. […] The total cycle time was 90 seconds per injection.
To quantify 6β-hydroxytestosterone, the mass spectrometer was operated under positive ionization mode and SRM used for analysis. […]
The signal intensity of the metabolite in MS/MS analysis was normalized to the signal of internal standard; thus signal intensity was expressed as signal ratio. […] Percent CYP3A4 enzyme activity remaining after preincubation was calculated as: % Activity(Remaining)=(S/T)*100 Where: S=sample signal, T=solvent control signal,
The kinetic parameters (kinact and KI) were then calculated by fitting the kobs values plotted against inhibitor concentrations ([I]) using the non-linear regression model (Michaelis-Menten equation) in the GRAPH PAD PRISM v.5.0 software (San Diego, Calif.):

dopamine transporter = dopamine transporter (Homo sapiens, UniProt Q01959); assay: In vitro safety: off-target receptor binding and enzyme assays, DAT; settings: in vitro safety panel
Chain of dopamine transporter (Q01959 whole entry): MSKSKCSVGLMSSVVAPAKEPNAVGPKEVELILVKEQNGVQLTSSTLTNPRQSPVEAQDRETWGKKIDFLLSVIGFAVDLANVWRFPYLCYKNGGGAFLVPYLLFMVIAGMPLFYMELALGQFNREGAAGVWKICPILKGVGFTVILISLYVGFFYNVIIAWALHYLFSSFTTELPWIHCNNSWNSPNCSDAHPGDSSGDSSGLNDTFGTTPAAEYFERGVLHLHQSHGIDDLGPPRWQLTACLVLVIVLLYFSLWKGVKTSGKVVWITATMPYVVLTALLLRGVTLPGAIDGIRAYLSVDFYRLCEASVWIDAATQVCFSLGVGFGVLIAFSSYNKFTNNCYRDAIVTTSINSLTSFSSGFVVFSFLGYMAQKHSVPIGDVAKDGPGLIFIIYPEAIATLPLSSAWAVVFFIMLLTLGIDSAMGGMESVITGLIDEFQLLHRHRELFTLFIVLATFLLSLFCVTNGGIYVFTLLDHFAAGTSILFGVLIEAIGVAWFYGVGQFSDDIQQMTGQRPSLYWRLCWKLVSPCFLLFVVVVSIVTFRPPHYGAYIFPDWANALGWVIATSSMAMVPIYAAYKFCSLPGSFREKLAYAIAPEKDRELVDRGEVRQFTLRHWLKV
Experimental: (§1) A range of off-target receptor binding assays and enzyme assays were carried out using conventional methods available in the art.

dopamine receptor 1 = dopamine receptor 1 (Homo sapiens, UniProt P21728); assay: In vitro safety: off-target receptor binding and enzyme assays, D1; settings: in vitro safety panel
Chain of dopamine receptor 1 (P21728 whole entry): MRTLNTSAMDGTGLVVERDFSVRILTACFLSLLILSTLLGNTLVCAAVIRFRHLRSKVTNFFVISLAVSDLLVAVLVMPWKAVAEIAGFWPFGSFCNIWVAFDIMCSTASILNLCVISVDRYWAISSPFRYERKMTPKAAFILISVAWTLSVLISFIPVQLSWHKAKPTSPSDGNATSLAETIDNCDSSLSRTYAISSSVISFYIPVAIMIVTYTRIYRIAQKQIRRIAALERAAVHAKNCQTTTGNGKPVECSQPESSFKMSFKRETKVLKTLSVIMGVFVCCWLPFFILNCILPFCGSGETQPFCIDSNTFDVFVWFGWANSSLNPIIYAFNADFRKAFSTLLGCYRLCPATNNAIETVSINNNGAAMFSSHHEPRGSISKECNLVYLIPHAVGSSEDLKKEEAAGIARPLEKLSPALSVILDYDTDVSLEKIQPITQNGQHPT
Experimental: as §1

monoamine oxidase A = molecular target: T4, monoamine oxidase A (Homo sapiens, UniProt P21397); assay: In vitro safety: off-target receptor binding and enzyme assays, MAO A; assay type: biochemical; settings: in vitro safety panel
T4 sequence (P21397 1-527): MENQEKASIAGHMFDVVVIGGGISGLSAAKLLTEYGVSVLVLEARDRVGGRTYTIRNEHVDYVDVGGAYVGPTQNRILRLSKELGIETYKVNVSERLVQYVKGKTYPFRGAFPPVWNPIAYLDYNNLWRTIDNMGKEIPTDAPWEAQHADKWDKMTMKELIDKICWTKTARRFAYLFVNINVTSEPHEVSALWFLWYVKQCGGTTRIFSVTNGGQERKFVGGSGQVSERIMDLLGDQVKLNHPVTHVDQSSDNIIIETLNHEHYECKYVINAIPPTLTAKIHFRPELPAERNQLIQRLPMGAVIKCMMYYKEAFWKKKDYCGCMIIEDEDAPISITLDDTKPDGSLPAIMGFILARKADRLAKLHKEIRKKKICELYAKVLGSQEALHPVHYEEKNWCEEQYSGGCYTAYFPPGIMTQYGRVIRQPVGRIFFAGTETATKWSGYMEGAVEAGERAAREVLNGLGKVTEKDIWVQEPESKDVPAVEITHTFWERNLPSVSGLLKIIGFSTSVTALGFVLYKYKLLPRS
Experimental: as §1

[2] = tested on: major human Cytochrome P450 (CYP) enzymes; assay: HLM TDI panel, other CYP enzymes; assay type: in vitro ADME; settings: CYP enzymes other than 3A4 and 2D6
CYP1A2 = molecular target: T5, CYP1A2 (Homo sapiens, UniProt P05177); assay: Inhibition of recombinant CYP enzymes (rCYP), CYP1A2
T5 sequence (P05177 1-516): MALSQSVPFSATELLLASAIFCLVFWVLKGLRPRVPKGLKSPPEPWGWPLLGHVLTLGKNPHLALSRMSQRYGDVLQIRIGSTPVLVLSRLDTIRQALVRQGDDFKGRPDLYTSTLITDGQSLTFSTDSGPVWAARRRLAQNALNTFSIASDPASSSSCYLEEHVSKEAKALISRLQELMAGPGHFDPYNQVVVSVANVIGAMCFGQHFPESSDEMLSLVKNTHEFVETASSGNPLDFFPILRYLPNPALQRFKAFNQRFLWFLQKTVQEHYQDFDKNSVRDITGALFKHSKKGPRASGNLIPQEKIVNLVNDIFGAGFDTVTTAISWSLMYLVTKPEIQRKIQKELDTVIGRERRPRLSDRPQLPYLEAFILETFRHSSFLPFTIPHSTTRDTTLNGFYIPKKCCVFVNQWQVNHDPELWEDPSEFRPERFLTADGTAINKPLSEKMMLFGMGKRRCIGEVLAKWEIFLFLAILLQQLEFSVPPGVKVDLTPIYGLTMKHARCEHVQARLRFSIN

CYP2C19 [3] = molecular target: T3, CYP2C19; assay: Inhibition of CYP enzymes in human liver microsomes (HLM), CYP2C19
[4] = HLM, all tested concentrations 0.31-20 μM, up to 25 min

CNc1nc(Nc2ccc(-n3cnc(C)n3)c(OC(F)F)c2)nc2c1C(C)(C)CC2c1ccc(F)cc1 (single isomer, unassigned) [Enantiomer 1, N2-(3-(difluoromethoxy)-4-(3-methyl-1H-1,2,4-triazol-1-yl)phenyl)-7-(4-fluorophenyl)-N4,5,5-trimethyl-6,7-dihydro-5H-cyclopenta[d]pyrimidine-2,4-diamine]
IC50 (CYP2B6): > 20 µM | IC50 (CYP2C8): 0.96 µM | IC50 (CYP2C9): 1.3 µM | IC50 (CYP2C19 [1]): 0.96 µM | IC50 (CYP2D6): > 20 µM | KI; Kinact (CYP3A4; HLM CYP3A4 inactivation): Inactivation rates below the limit of reliable | apparent rates of inactivation (kobs) with midazolam (CYP3A4; [4]): < 0.003 min⁻¹ | apparent rates of inactivation (kobs) with testosterone (CYP3A4; [4]): < 0.006 min⁻¹ | mechanism-based inhibition of CYP3A4 (CYP3A4; HLM, midazolam and testosterone probes): not a mechanism-based inhibitor of CYP3A4 | IC50 (dopamine transporter): 8 to 10 µM | IC50 (dopamine receptor 1): 8 to 10 µM | IC50 (monoamine oxidase A): 8 to 10 µM | HLM TDI panel TDI ratio, others [2]: < 2 | IC50 (CYP1A2): > 20 µM | IC50 Ratio 2C19 (CYP2C19 [3]; HLM, IC50 shift 0 vs 30 min preincubation (TDI ratio)): 1.9 | IC50 (CYP2C19 [3]; IC50-0 min 2C19, HLM, 0 min preincubation): 22.6 µM | IC50 (CYP2C19 [3]; IC50-30 min 2C19, HLM, 30 min preincubation with NADPH): 12.2 µM
